In US20170105969A1, “CENICRIVIROC FOR THE TREATMENT OF HIV-2 INFECTION” (Tobira Therapeutics, Inc., priority 2014, published 2017):

Columns and labels:
CCR4 = molecular target: T1, CCR4 (Homo sapiens, UniProt P51679); experiment: Ligand binding to CCR4
T1 sequence (P51679 1-360): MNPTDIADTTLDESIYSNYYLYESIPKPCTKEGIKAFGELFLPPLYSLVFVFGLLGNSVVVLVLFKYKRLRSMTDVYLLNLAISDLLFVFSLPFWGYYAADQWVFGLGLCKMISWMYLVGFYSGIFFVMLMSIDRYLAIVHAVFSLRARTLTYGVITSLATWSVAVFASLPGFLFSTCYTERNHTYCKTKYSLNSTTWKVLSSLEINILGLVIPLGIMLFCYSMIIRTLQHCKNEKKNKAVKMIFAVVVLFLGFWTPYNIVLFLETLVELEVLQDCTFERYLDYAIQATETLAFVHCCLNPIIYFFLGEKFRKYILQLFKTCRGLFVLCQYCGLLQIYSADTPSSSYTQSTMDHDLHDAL

HIV-1 = experiment: Study 201: pharmacokinetic/pharmacodynamic relationships (Emax model); type: in vivo, human
Text: Drug response was characterized using the following maximum effect (Emax) model: […]

CCR5-tropic HIV-1 BaL = experiment: PM-1 cells infected with HIV-1 BaL, supernatant P24 and viral load after 4 hours; type: cell-based; settings: CVC 20 nM or MVC 50 nM
Experimental: (§1) Early (strong-stop) and late (full-length) reverse transcript levels were measured by qPCR. […] P24 and viral load levels were measured by ELISA and qRT-PCR after 4 hours.

[1] = APRI and FIB-4 fibrosis scores, post-hoc analysis of Study 202; type: in vivo, human
Experimental: Change in score category from baseline (BL) to Weeks 24 and 48 was assessed in patients with non-missing data. Correlations between changes from BL in APRI and FIB-4 scores, and MCP-1 (CCR2 ligand) and sCD14 (inflammatory biomarker) levels were evaluated.

MCP-1 = experiment: Study 201: inflammatory markers MCP-1, hs-CRP, IL-6; type: in vivo, human
Text: Exploratory efficacy endpoints included changes in the inflammatory markers MCP-1, hs-CRP, and IL-6.
(§2) Subjects were antiretroviral treatment experienced, CCR5 antagonist-naïve, with HIV-1 RNA levels of at least 5000 copies/mL and CD4+ cell counts of at least 250 cells/mm^3. Subjects with HIV-2, hepatitis B virus, or hepatitis C virus co-infection or dual/mixed-tropic HIV-1 were ineligible. Other than their HIV-1 infection, subjects were generally healthy.

HIV = experiment: Ex vivo intracellular HIV DNA (qPCR) in PBMCs of Study 202 subjects; settings: Week 24
Experimental: as §1

HIV-2 clinical isolates = experiment: HIV-2 phenotypic susceptibility, ANRS PBMC method; type: cell-based; settings: for EC50: Human immunodeficiency virus 2, PBMC
Experimental: All patients were infected with HIV-2 group A. Tropism was determined phenotypically using Ghost(3) cell lines expressing CD4 receptor and one HIV coreceptor, CCR5 or CXCR4. Both Ghost(3) cell lines carries a humanized green fluorescent protein (GFP) gene, under the control of a HIV-2 LTR. […] Ghost(3) cells were provided by the NIH AIDS Reagent program.
Briefly, cell-free HIV-2 positive supernatant was serially diluted (1, 10^−1, and 10^−2) and incubated with PBMC for viral titration. Viruses were tested at a 100 TCID50 titration. Cells were pre-incubated with cenicriviroc or maraviroc at an appropriate concentration 1 hour before viral infection. Six serial dilutions of the antiretroviral drug were tested in quadruplicate. On day 4, viral replication was assessed by a specific viral load assay (Generic HIV-2 viral load, Biocentric, France).

[2] = Study 201: safety and tolerability (adverse events); type: in vivo, human
Experimental: as §2
In this study, all dose groups received the original formulation (DP3_25), except the 100 mg dose group which received an alternative formulation (DP4_100). […] These subjects were excluded from the efficacy, PK, and PK/PD data, but included in the baseline and safety data. In this study, safety and tolerability were assessed by monitoring AEs, vital signs, ECGs, clinical laboratory values from blood and urine, and physical examinations. Data from all subjects on placebo were pooled for the analyses.

[3] = HIV-2 isolate 10-046, group A, R5
[4] = HIV-2 isolate 10-051, group A, R5
[5] = HIV-2 isolate 10-055, group A, X4
[6] = HIV-2 isolate 10-056, group A, R5
[7] = HIV-2 isolate 10-069, group A, Dual
[8] = HIV-2 isolate 10-074, group A, R5
[9] = among subjects on CVC presenting with a AE (n=30)

CCCCOCCOc1ccc(-c2ccc3c(c2)/C=C(/C(=O)Nc2ccc([S@@+]([O-])Cc4cncn4CCC)cc2)CCCN3CC(C)C)cc1 [CVC, (S)-8-[4-(2-Butoxyethoxy)phenyl]-1-isobutyl-N-(4-{[(1-propyl-1H-imidazol-5-yl)methyl]sulfinyl}phenyl)-1,2,3,4-tetrahydro-1-benzazocine-5-carboxamide]
inhibition of ligand binding (in words) (CCR4): weakly inhibited
Emax in the PK/PD model (HIV-1; HIV-1 RNA, Study 201): −1.43 log10 copies/mL
Emax at 25 mg (HIV-1; Human immunodeficiency virus 1, 25 mg dose, read-out: percent of the maximum inhibitory effect at average Css (Emax model)): 54.9%
Emax at 50 mg (HIV-1; Human immunodeficiency virus 1, 50 mg dose, read-out: percent of the maximum inhibitory effect at average Css (Emax model)): 79.8%
Emax at 75 mg (HIV-1; Human immunodeficiency virus 1, 75 mg dose, read-out: percent of the maximum inhibitory effect at average Css (Emax model)): 85.9%
Emax at 150 mg (HIV-1; Human immunodeficiency virus 1, 150 mg dose, read-out: percent of the maximum inhibitory effect at average Css (Emax model)): 95.9%
supernatant P24 (CCR5-tropic HIV-1 BaL; 0 hrs (baseline)): 506 ng/mL
viral load (CCR5-tropic HIV-1 BaL; 0 hrs): 1.19×10^10 copies/ml
supernatant P24 (CCR5-tropic HIV-1 BaL; 4 hrs): 192 ng/mL
viral load (CCR5-tropic HIV-1 BaL; 4 hrs): 1.26×10^10 copies/ml
patients in APRI category 0.5-1.5 ([1]; Baseline): 14%
patients in APRI category <0.5 ([1]; Baseline): 84%
patients in APRI category >1.5 ([1]; Baseline): 2%
patients in FIB-4 category 1.45-3.25 ([1]; Baseline): 17%
patients in FIB-4 category <1.45 ([1]; Baseline): 82%
patients in FIB-4 category >3.25 ([1]; Baseline): 1%
APRI: Decreased 1 category from baseline ([1]; Week 24): 14%
FIB-4: Decreased 1 category from baseline ([1]; Week 24): 13%
patients in APRI category 0.5-1.5 ([1]; Week 24): 7%
patients in APRI category <0.5 ([1]; Week 24): 93%
patients in FIB-4 category 1.45-3.25 ([1]; Week 24): 7%
patients in FIB-4 category <1.45 ([1]; Week 24): 93%
APRI: Decreased 1 category from baseline ([1]; Week 48): 10%
FIB-4: Decreased 1 category from baseline ([1]; Week 48): 14%
patients in APRI category 0.5-1.5 ([1]; Week 48): 8%
patients in APRI category <0.5 ([1]; Week 48): 91%
patients in APRI category >1.5 ([1]; Week 48): 1%
patients in FIB-4 category 1.45-3.25 ([1]; Week 48): 5%
patients in FIB-4 category <1.45 ([1]; Week 48): 94%
patients in FIB-4 category >3.25 ([1]; Week 48): 1%
MCP-1, Baseline Mean (MCP-1; 25 mg cohort): 20.0 pg/mL
MCP-1, Baseline Median (MCP-1; 25 mg cohort): 16.0 pg/mL
MCP-1, Change from Baseline to Day 10, Median (MCP-1; 25 mg once daily): +25.0 pg/mL
MCP-1, Day 10 Mean (MCP-1; 25 mg once daily): 75.3 pg/mL
MCP-1, Day 10 Median (MCP-1; 25 mg once daily): 39.0 pg/mL
MCP-1, Baseline Mean (MCP-1; 50 mg cohort): 12.6 pg/mL
MCP-1, Baseline Median (MCP-1; 50 mg cohort): 6.0 pg/mL
MCP-1, Change from Baseline to Day 10, Median (MCP-1; 50 mg once daily): +56.0 pg/mL
MCP-1, Day 10 Mean (MCP-1; 50 mg once daily): 101.3 pg/mL
MCP-1, Day 10 Median (MCP-1; 50 mg once daily): 65.0 pg/mL
MCP-1, Baseline Mean (MCP-1; 75 mg cohort): 26.6 pg/mL
MCP-1, Baseline Median (MCP-1; 75 mg cohort): 8.0 pg/mL
MCP-1, Change from Baseline to Day 10, Median (MCP-1; 75 mg once daily): +36.0 pg/mL
MCP-1, Day 10 Mean (MCP-1; 75 mg once daily): 59.1 pg/mL
MCP-1, Day 10 Median (MCP-1; 75 mg once daily): 43.5 pg/mL
MCP-1, Baseline Mean (MCP-1; 150 mg cohort): 31.6 pg/mL
MCP-1, Baseline Median (MCP-1; 150 mg cohort): 19.5 pg/mL
MCP-1, Change from Baseline to Day 10, Median (MCP-1; 150 mg once daily): +322.0 pg/mL
MCP-1, Day 10 Mean (MCP-1; 150 mg once daily): 372.0 pg/mL
MCP-1, Day 10 Median (MCP-1; 150 mg once daily): 368.0 pg/mL
effect on hs-CRP or IL-6 levels (in words) (MCP-1; 10-day study): no effect
Strong-stop HIV DNA decline (marker of HIV entry) (HIV; CVC 100 mg arm): 51%
Strong-stop HIV DNA decline (marker of HIV entry) (HIV; CVC 200 mg arm): 37%
MPI (%) (HIV-2 clinical isolates; [3]): 94%
MPI (%) (HIV-2 clinical isolates; [4]): 93%
MPI (%) (HIV-2 clinical isolates; [5]): 4%
MPI (%) (HIV-2 clinical isolates; [6]): 94%
MPI (%) (HIV-2 clinical isolates; [7]): 33%
MPI (%) (HIV-2 clinical isolates; [8]): 98%
EC50 (HIV-2 clinical isolates; [3]): 0.03 nM
EC50 (HIV-2 clinical isolates; [4]): 0.45 nM
EC50 (HIV-2 clinical isolates; [5]): > 1000 nM
EC50 (HIV-2 clinical isolates; [6]): 0.33 nM
EC50 (HIV-2 clinical isolates; [7]): > 1000 nM
EC50 (HIV-2 clinical isolates; [8]): 0.98 nM
treatment-emergent AE: diarrhea [2]: 16.7%
treatment-emergent AE: fatigue [2]: 11.0%
treatment-emergent AE: headache [2]: 14.8%
treatment-emergent AE: nausea [2]: 18.5%
subjects with mild AEs [2, 9]: 80%
subjects with moderate AEs [2, 9]: 17%
tolerability (in words) ([2]; doses between 25 mg and 150 mg): generally well tolerated
